Here are results for 1 substance from patent US20230015532A1, “PHARMACEUTICAL COMPOSITION, FOR PREVENTING OR TREATING FIBROSIS, COMPRISING PHEOPHORBIDE COMPOUND AS ACTIVE INGREDIENT” (PAEAN BIOTECHNOLOGY INC., priority 2019, published 2023).

Format in all cases: cell-based, human
For assay [1], the system named is collagen 1A in CCD8-Lu cells. The experiment in a line: Anti-fibrotic activity by immunocytochemistry staining (Experimental Example 3.2). To be noted: 6 hours after 5 ng/ml TGF-β. As for the experimental part: A cell-based assay experiment was performed to analyze the anti-fibrotic activity of pheophorbide a obtained in Preparation Example 2, using immunocytochemistry staining method.
CCD8-Lu cells, which are human lung-derived fibroblasts, were cultured in the DMEM medium containing 10% FBS. About 2×10^4 cells were then inoculated into a 24 well plate and cultured for 24 hours, and subjected to the deficient condition in the DMEM medium from which FBS was removed for about 24 hours.
After 24 hours, following the treatment with TGF-β at a concentration of 5 ng/ml, fibrosis of cells was induced for 6 hours. After 6 hours, the cells were treated with pheophorbide a obtained in Preparation Example 2 and further cultured for 18 hours (FIG. 2). Then, the negative control group was treated with nothing, the positive control group was treated with TGF-β alone at a concentration of 5 ng/ml, and the experimental groups were treated with TGF-β at a concentration of 5 ng/ml and 6 hours later, with pheophorbide a at each concentration of 0.15 μM, 0.3 μM, 0.6 μM, 1.2 μM, 2.5 μM and 5 μM.
Immunohistochemistry analysis for each sample was performed as follows. […] The nuclei were stained using DAPI (4,6-diamidino-2-phenylindole) and the difference in the intensity of fluorescence was analyzed using a fluorescence microscope.

Assay [2] concerns α-SMA, collagen 1A and fibronectin in CCD8-Lu cells. The assay is described as follows: Comparison of anti-fibrotic activity by Western blotting (Experimental Example 4.2). The following applies: 2.5 μM and 5 μM, 6 hours after 5 ng/ml TGF-β, 18 hours. As for the experimental part: A cell-based analysis experiment was performed to analyze the anti-fibrotic activity of pheophorbide a in comparison with nintedanib and pirfenidone, which were previously approved as a therapeutic agent for pulmonary fibrosis, using Western blotting assay.
CCD8-Lu cells, which are human lung-derived fibroblasts, were cultured in the DMEM medium containing 10% FBS. About 2×10^5 cells were then inoculated into a 6 well plate, cultured for 24 hours, and subjected to the deficient condition in the DMEM medium from which FBS was removed for about 24 hours.
24 hours later, following the treatment with TGF-β at a concentration of 5 ng/ml, fibrosis of cells was induced for 6 hours. Then, the cells were treated with pheophorbide a obtained in Preparation Example 2 or the therapeutic agent for pulmonary fibrosis and further cultured for 18 hours. Then, the negative control group was treated with nothing, the positive control group was treated with TGF-β alone at a concentration of 5 ng/ml, and the experimental groups were treated with TGF-β at a concentration of 5 ng/ml and 6 hours later, with pheophorbide a at a concentration of […] or 5 μM, nintedanib at a concentration of 1 μM, and pirfenidone at a concentration of 1 mM, respectively.
After 18 hours, the culture medium was removed and the cells were washed twice by adding a PBS buffer solution, and 100 μl of RIPA buffer solution (150 mM NaCl, 1% NP-40, 0.5% Deoxycholic acid, 0.1% SDS, 50 mM Tris pH 7.5) containing a protease inhibitor was added thereto directly. 10 minutes later, the cells were recovered using a scraper and transferred to a microtube and centrifuged at about 12,000×g for 10 minutes.
The separated supernatant was obtained and transferred to a new microtube and then the protein was quantified using a bicinchoninic acid assay (BCA assay) protein quantitative kit. Each sample with the same amount of protein was subjected to electrophoresis, and then Western blotting was performed. […]
On the technique in general: In western blotting, separated proteins are transferred to a membrane and probed.

Assay [3] relates to collagen 1A, fibronectin and alpha-smooth muscle actin proteins in CCD8-Lu cells. The experiment in a line: Anti-fibrotic activity by Western blotting (Experimental Example 3.1). To be noted: 0.06-5 μM, 6 hours after TGF-β, 18 hours. The protocol:
A cell-based assay experiment was performed using Western blotting assay to analyze the anti-fibrotic activity of pheophorbide a.
CCD8-Lu cells, which are human lung-derived fibroblasts, were cultured in the DMEM medium containing 10% FBS. Then, about 2×10^5 cells were inoculated into a 6 well plate and cultured for 24 hours, and subjected to the deficient condition in the DMEM medium from which FBS was removed for about 24 hours.
24 hours later, following the treatment with TGF-β at a concentration of 5 ng/ml, fibrosis of cells was induced for 6 hours. After 6 hours, the cells were treated with pheophorbide a obtained in Preparation Example 2 and further cultured for 18 hours (FIG. 2). Then, the negative control group was treated with nothing, the positive control group was treated with TGF-β alone at a concentration of 5 ng/ml, and the experimental groups were treated with TGF-β at a concentration of […] and 6 hours later, with pheophorbide a at each concentration of 0.06 μM, 0.12 μM, 0.25 μM, 0.5 μM, 2.5 μM and 5 μM. […]
The separated supernatant was obtained and transferred to a new microtube and then the protein was quantified using a bicinchoninic acid assay (BCA assay) protein quantitative kit. […]

For the substance pheophorbide a, the “increased expression of collagen 1A induced by TGF-β” value in assay [1] (0.15-5 μM, fluorescence intensity) is “largely inhibited”. In addition, the “inhibitory effect on the increased expression of collagen 1A induced by TGF-β” value in assay [1] (concentration of 2.5 μM or more) is given as “most excellent inhibitory effect”. In addition, the “expression of the α-SMA, collagen 1A, and fibronectin induced by TGF-β” value in assay [2] was “remarkably inhibited”. The “expression of collagen 1A, fibronectin, and smooth muscle actin proteins induced by TGF-β” value in assay [3] was “inhibited”.
